Assay: Tacrolimus tissue pharmacokinetics, oral vs intra-cecal ingestible device, in Yorkshire-Cross farm swine
Assay type: in vivo
Details: intra-cecal compared to oral, 12 hours post-dose, FIG. 76
Protocol: No further randomization procedure was employed.
Animals in Group 1 received an ingestible device containing 0.8 mL of vehicle solution (80% alcohol, 20% HCO-60). Animals in Group 2 received orally […] liquid formulation of tacrolimus at 4 mg/0.8 mL per animal (Prograf: 5 mg/mL). Animals in Group 3 received intra-cecally an ingestible device containing tacrolimus at 1 mg in 0.8 mL per ingestible device. Animals in Group 4 received intra-cecally an ingestible device containing tacrolimus at 2 mg in 0.8 mL per ingestible device. Animals in Group 5 received intra-cecally an ingestible device containing tacrolimus at 4 mg in 0.8 mL per ingestible device. […]
Approximately 200˜400 mg of rectal content were collected, if available, with a fecal swab (Copan Diagnostics Nylon Flocked Dry Swabs, 502CS01). The fecal swab was pre-weighed and weighed after collection in the collection tube (Sterile Tube and Cap No Media, PFPM913S), and the sample weight was recorded. […]
For tissue necropsy, small intestine fluid and cecal fluid were collected separately from all the animals into two separate square plastic bottles, and stored at −20° C. The length and diameter of the cecum and the colon was measured from one animal in each group and recorded for reference. […] All samples were weighed, and the tissue sample weights were recorded. […]

- mean concentration of tacrolimus in the cecum tissue: higher
- mean concentration of tacrolimus in the proximate colon tissue: higher
SMILES: C=CC[C@@H]1/C=C(\C)C[C@H](C)C[C@H](OC)[C@H]2O[C@@](O)(C(=O)C(=O)N3CCCC[C@H]3C(=O)O[C@H](/C(C)=C/[C@@H]3CC[C@@H](O)[C@H](OC)C3)[C@H](C)[C@@H](O)CC1=O)[C@H](C)C[C@@H]2OC [tacrolimus]

— patent US11597762B2, “Treatment of a disease of the gastrointestinal tract with an IL-12/IL-23 inhibitor released using an ingestible device” (BIORA THERAPEUTICS, INC., priority 2016, dated 2023)
